Tests used:
PIK3CG (human) [1] = target: PIK3CG (human) (UniProt P48736); experiment: Enzyme Assay
PIK3CD (Human) [2] = target: PIK3CD (Human) (UniProt O00329); experiment: Enzyme Assay
PIK3CA (human) [3] = target: PIK3CA (human) (UniProt P42336); experiment: Enzyme Assay
PIK3CG (human) [4] = target: PIK3CG (human) (UniProt P48736); experiment: Cell-Based Assay; settings: u937
PIK3CD (Human) [5] = target: PIK3CD (Human) (UniProt O00329); experiment: Cell-Based Assay; settings: rat-1
PIK3CA (human) [6] = target: PIK3CA (human) (UniProt P42336); experiment: Cell-Based Assay; settings: rat-1

PIK3CA (human), sequence (P42336 whole entry, looked up): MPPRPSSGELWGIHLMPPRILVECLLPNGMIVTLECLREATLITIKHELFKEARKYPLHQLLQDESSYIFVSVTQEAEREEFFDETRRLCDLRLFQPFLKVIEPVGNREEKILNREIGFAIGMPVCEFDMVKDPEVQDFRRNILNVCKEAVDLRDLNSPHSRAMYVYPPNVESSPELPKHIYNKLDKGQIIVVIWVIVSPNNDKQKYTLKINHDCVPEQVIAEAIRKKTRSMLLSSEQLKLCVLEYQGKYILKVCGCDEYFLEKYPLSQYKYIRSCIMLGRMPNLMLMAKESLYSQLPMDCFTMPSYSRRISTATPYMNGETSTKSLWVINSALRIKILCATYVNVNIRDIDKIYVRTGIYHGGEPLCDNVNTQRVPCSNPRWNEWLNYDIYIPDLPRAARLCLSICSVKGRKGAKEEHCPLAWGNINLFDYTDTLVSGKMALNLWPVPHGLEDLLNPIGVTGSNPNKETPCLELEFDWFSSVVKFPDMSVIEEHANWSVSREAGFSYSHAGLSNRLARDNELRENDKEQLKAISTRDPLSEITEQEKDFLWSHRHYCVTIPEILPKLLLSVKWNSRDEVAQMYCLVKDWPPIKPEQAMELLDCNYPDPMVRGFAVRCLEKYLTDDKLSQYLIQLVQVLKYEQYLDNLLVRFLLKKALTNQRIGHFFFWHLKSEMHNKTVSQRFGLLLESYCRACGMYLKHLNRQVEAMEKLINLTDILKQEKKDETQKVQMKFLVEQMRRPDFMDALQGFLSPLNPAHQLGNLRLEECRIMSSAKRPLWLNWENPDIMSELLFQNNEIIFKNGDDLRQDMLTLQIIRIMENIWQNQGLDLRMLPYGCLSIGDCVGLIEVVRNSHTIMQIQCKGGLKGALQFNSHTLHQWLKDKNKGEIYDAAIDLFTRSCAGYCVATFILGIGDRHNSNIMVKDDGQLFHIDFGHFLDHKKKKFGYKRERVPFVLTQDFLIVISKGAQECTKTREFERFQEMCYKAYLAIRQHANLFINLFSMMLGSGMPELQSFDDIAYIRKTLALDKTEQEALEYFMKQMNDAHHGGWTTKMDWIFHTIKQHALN
PIK3CG (human), sequence (P48736 whole entry, looked up): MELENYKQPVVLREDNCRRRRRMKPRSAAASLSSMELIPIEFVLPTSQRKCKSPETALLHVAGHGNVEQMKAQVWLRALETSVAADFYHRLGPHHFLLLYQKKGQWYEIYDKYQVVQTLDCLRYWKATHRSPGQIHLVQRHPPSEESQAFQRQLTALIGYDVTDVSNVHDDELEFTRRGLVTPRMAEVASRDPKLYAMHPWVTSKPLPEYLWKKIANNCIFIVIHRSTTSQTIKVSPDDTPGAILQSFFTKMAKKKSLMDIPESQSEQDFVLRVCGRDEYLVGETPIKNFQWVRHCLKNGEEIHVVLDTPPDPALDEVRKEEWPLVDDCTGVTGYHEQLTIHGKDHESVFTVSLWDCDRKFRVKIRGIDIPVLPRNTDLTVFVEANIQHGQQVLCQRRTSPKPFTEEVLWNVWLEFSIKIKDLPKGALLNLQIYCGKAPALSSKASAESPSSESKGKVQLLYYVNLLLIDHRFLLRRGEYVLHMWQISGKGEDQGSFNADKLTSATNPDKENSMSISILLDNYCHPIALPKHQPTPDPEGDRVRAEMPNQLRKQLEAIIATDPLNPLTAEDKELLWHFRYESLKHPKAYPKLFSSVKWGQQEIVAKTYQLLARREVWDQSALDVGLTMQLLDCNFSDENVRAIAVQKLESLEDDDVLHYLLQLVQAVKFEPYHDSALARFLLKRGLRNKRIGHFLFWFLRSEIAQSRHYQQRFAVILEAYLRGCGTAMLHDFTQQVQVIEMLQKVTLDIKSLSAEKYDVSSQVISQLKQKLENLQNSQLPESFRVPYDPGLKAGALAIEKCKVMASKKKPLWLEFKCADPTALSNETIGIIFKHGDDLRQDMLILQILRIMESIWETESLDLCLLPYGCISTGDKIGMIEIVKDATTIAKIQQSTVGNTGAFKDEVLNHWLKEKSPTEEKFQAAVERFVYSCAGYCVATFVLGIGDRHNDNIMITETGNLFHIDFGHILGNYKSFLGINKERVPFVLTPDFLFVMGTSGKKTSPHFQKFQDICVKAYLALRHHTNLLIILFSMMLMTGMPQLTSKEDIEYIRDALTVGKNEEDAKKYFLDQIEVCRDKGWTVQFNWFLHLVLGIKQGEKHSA
PIK3CD (Human), sequence (O00329 whole entry, looked up): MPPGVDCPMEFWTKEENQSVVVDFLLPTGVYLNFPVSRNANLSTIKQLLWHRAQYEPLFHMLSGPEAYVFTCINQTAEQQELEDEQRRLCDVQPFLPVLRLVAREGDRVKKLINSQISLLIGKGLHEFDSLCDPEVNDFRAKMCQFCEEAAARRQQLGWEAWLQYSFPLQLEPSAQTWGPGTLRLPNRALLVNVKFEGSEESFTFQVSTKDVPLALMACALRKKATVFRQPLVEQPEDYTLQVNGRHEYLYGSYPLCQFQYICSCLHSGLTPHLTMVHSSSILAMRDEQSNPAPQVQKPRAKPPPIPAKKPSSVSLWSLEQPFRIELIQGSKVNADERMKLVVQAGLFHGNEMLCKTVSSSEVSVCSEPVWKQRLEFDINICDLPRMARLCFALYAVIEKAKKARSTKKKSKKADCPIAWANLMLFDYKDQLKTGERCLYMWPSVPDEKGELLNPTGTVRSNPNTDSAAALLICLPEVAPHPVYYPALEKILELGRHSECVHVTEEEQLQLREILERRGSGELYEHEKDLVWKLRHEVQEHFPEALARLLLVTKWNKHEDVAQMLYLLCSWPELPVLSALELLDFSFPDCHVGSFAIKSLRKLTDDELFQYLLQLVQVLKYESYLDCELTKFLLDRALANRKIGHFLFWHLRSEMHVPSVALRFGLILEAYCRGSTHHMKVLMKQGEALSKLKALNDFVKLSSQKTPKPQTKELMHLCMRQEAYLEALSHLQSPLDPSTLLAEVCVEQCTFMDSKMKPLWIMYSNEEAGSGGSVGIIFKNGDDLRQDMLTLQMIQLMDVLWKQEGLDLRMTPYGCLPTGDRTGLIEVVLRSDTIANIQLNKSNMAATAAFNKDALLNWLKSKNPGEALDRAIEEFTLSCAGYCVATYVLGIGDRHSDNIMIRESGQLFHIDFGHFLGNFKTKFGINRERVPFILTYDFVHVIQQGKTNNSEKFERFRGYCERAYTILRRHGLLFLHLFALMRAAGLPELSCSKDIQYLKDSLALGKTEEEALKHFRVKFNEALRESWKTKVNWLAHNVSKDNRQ

SMILES: Cc1nc(N)nc(N2C[C@@H](O)C[C@H]2c2nc3ccc(F)c(F)c3c(=O)n2-c2ccccc2)c1C#N
- IC50 (PIK3CG (human) [1]): 97 nM
- IC50 (PIK3CD (Human) [2]): 43 nM
- IC50 (PIK3CA (human) [3]): 700 nM
- IC50 (PIK3CG (human) [4]): 33 nM
- IC50 (PIK3CD (Human) [5]): 30 nM
- IC50 (PIK3CA (human) [6]): 7130 nM

SMILES: N#Cc1c(N)ncnc1N1OCC[C@H]1c1nc2cccc(Cl)c2c(=O)n1-c1ccccc1
- IC50 (PIK3CG (human) [1]): 44 nM
- IC50 (PIK3CD (Human) [2]): < 3 nM
- IC50 (PIK3CA (human) [3]): 2000 nM
- IC50 (PIK3CG (human) [4]): 144 nM
- IC50 (PIK3CD (Human) [5]): 14 nM
- IC50 (PIK3CA (human) [6]): 3690 nM

SMILES: Cc1nc(N)nc(N2C[C@@H](O)C[C@H]2c2nc3cccc(C(F)(F)F)c3c(=O)n2-c2cccc(F)c2)c1C#N
- IC50 (PIK3CG (human) [1]): 80 nM
- IC50 (PIK3CD (Human) [2]): 24 nM
- IC50 (PIK3CA (human) [3]): 1700 nM
- IC50 (PIK3CG (human) [4]): 10 nM
- IC50 (PIK3CD (Human) [5]): 16 nM
- IC50 (PIK3CA (human) [6]): 6570 nM

SMILES: Nc1nc(N2CCC[C@H]2c2nc3cccc(Cl)c3c(=O)n2-c2cccnc2)c2nc[nH]c2n1
- IC50 (PIK3CG (human) [1]): 24 nM
- IC50 (PIK3CD (Human) [2]): 8 nM
- IC50 (PIK3CA (human) [3]): 1500 nM
- IC50 (PIK3CG (human) [4]): 675 nM
- IC50 (PIK3CD (Human) [5]): 77 nM
- IC50 (PIK3CA (human) [6]): > 10000 nM

SMILES: Cc1nc(N)nc(N2CCC[C@H]2c2nc3cccc(F)c3c(=O)n2-c2ccccc2)c1C#N
- IC50 (PIK3CG (human) [1]): 64 nM
- IC50 (PIK3CD (Human) [2]): 21 nM
- IC50 (PIK3CA (human) [3]): 330 nM
- IC50 (PIK3CG (human) [4]): 115 nM
- IC50 (PIK3CD (Human) [5]): 9 nM
- IC50 (PIK3CA (human) [6]): 2870 nM

SMILES: CS(=O)(=O)N1CC[C@H](n2c([C@@H]3CCCN3c3ncnc4[nH]cnc34)nc3cccc(Cl)c3c2=O)C1
- IC50 (PIK3CG (human) [1]): 370 nM
- IC50 (PIK3CD (Human) [2]): 360 nM
- IC50 (PIK3CA (human) [3]): > 10000 nM
- IC50 (PIK3CG (human) [4]): > 10000 nM
- IC50 (PIK3CD (Human) [5]): 939 nM
- IC50 (PIK3CA (human) [6]): > 10000 nM

SMILES: O=c1c2c(C(F)(F)F)cccc2nc([C@@H]2C[C@H](O)CN2c2ncnc3[nH]cnc23)n1-c1ccccc1
- IC50 (PIK3CG (human) [1]): 210 nM
- IC50 (PIK3CD (Human) [2]): 16 nM
- IC50 (PIK3CA (human) [3]): 1400 nM
- IC50 (PIK3CG (human) [4]): 34 nM
- IC50 (PIK3CD (Human) [5]): 91 nM
- IC50 (PIK3CA (human) [6]): 7220 nM

SMILES: COc1cccc2nc([C@@H]3CCCN3c3ncnc(N)c3C#N)n(-c3ccccc3)c(=O)c12
- IC50 (PIK3CG (human) [1]): 5200 nM
- IC50 (PIK3CD (Human) [2]): 76 nM
- IC50 (PIK3CA (human) [3]): > 10000 nM
- IC50 (PIK3CG (human) [4]): 382 nM
- IC50 (PIK3CD (Human) [5]): > 10000 nM
- IC50 (PIK3CA (human) [6]): > 10000 nM

SMILES: Cc1nc(N)nc(N2C[C@@H](O)C[C@H]2c2nc3cccc(C(F)(F)F)c3c(=O)n2-c2cc(F)cc(F)c2)c1C#N
- IC50 (PIK3CG (human) [1]): 890 nM
- IC50 (PIK3CD (Human) [2]): 97 nM
- IC50 (PIK3CA (human) [3]): 3100 nM
- IC50 (PIK3CG (human) [4]): 60 nM
- IC50 (PIK3CD (Human) [5]): 42 nM
- IC50 (PIK3CA (human) [6]): 8840 nM

SMILES: Cc1nc(N)nc(N2CCC[C@H]2c2nc3cccc(C(F)(F)F)c3c(=O)n2-c2cncnc2)c1C#N
- IC50 (PIK3CG (human) [1]): 230 nM
- IC50 (PIK3CD (Human) [2]): 100 nM
- IC50 (PIK3CA (human) [3]): 4200 nM
- IC50 (PIK3CG (human) [4]): 306 nM
- IC50 (PIK3CD (Human) [5]): 295 nM
- IC50 (PIK3CA (human) [6]): > 10000 nM

SMILES: Cc1nc(N)nc(N2C[C@@H](F)C[C@H]2c2nc3cccc(C(F)(F)F)c3c(=O)n2-c2cccnc2)c1C#N
- IC50 (PIK3CG (human) [1]): 35 nM
- IC50 (PIK3CD (Human) [2]): 26 nM
- IC50 (PIK3CA (human) [3]): 1300 nM
- IC50 (PIK3CG (human) [4]): 53 nM
- IC50 (PIK3CD (Human) [5]): 23 nM
- IC50 (PIK3CA (human) [6]): 4200 nM

SMILES: N#Cc1c(N)ncnc1N1C[C@@H](O)C[C@H]1c1nc2ccc(F)c(F)c2c(=O)n1-c1ccccc1
- IC50 (PIK3CG (human) [1]): 1300 nM
- IC50 (PIK3CD (Human) [2]): 96 nM
- IC50 (PIK3CA (human) [3]): 4000 nM
- IC50 (PIK3CG (human) [4]): 1590 nM
- IC50 (PIK3CD (Human) [5]): 45 nM
- IC50 (PIK3CA (human) [6]): > 10000 nM

SMILES: Cc1nc(N)nc(N2C[C@@H](F)C[C@H]2c2nc3cccc(C(F)(F)F)c3c(=O)n2-c2cccc(F)c2)c1C#N
- IC50 (PIK3CG (human) [1]): 42 nM
- IC50 (PIK3CD (Human) [2]): 14 nM
- IC50 (PIK3CA (human) [3]): 910 nM
- IC50 (PIK3CG (human) [4]): 42 nM
- IC50 (PIK3CD (Human) [5]): 14 nM
- IC50 (PIK3CA (human) [6]): 3410 nM

SMILES: Nc1nc(N2C[C@@H](O)C[C@H]2c2nc3cccc(C(F)(F)F)c3c(=O)n2-c2ccccc2)c2nccn2n1
- IC50 (PIK3CG (human) [1]): 31 nM
- IC50 (PIK3CD (Human) [2]): 26 nM
- IC50 (PIK3CA (human) [3]): 3300 nM
- IC50 (PIK3CG (human) [4]): 31 nM
- IC50 (PIK3CD (Human) [5]): 90 nM
- IC50 (PIK3CA (human) [6]): > 10000 nM
